Assay results reported in PMC6895203, “Conformational pathway provides unique sensitivity to a synaptic mGluR” (Nature Communications, 2019).
“And” between values parts separate entries of the source, which are not always exact repeats. Identical values can stand only once. “Also recorded” adds a separate entry of the source.

Experiments:
[1] = molecular target: T1, SNAP-mGluR7(K319C) homodimer (Rattus norvegicus, UniProt P35400, K319C); experiment: smFRET on SNAP-mGluR7(K319C) homodimers conjugated to D-MAG-0; type: biochemical
T1 construct: HA (N); made in house; host or cells: HEK293T
Procedure: smFRET was performed on purified SNAP-mGluR7(K319C) homodimers that were labeled with donor and acceptor dyes on the SNAP and D-MAG-0 on K319C in the D-MAG-0 activated state. […] Illumination was applied to the entire field of view using either a Polychrome V monochromator (TILL Photonics) through a 20× objective, or a Lambda DG4 high-speed wavelength switcher (Sutter Instruments) with 380 nm and 500 nm filters through a 40× objective. pClamp software was used for both data acquisition and control of illumination.
(§1) (100 ms time resolution).

[2] = molecular target: T2, CLIP-mGluR2/SNAP-mGluR7(K319C) heterodimer (Rattus norvegicus, UniProt P31421+P35400, K319C); experiment: smFRET on CLIP-mGluR2/SNAP-mGluR7(K319C) heterodimers with D-MAG-0 on mGluR7; type: biochemical; conditions: trans D-MAG-0 only on the mGluR7 subunit
T2 construct: Flag (N); HA (N); made in house; host or cells: HEK293T
Source text: (§2) Illumination was applied to the entire field of view using either a Polychrome V monochromator (TILL Photonics) through a 20× objective, or a Lambda DG4 high-speed wavelength switcher (Sutter Instruments) with 380 nm and 500 nm filters through a 40× objective. pClamp software was used for both data acquisition and control of illumination.
as §1

[3] = molecular target: CLIP-mGluR2/SNAP-mGluR7 heterodimer (mGluR2/7) (Rattus norvegicus, UniProt P31421+P35400); experiment: smFRET on isolated CLIP-mGluR2/SNAP-mGluR7 heterodimers; conditions: for effect on smFRET distribution: 0 glutamate, combination of mGluR2 NAM (11 µM Ro 64-5229 or 1.2 µM MNI-137) with mGluR7 NAM ([…] ADX 71743)
SNAP-mGluR2(F756D) = molecular target: T3, SNAP-mGluR2(F756D) (Rattus norvegicus, UniProt P31421, F756D); experiment: Whole-cell patch clamp of GIRK1 current, SNAP-mGluR2(F756D) expressed alone; type: cell-based; conditions: BGAG12 labeled, 380 nm
T3 construct: HA (N); expressed in transfected cells; host or cells: HEK293 / HEK293T
Source text: (§3) We explored this further by examining trans-activation, whereby binding of ligand to one subunit activates G-protein interaction in the partner subunit[46],[47]. To specifically activate only the mGluR2 subunit of the mGluR2/7 heterodimer, we selectively attached a photoswitched tethered ligand to mGluR2.
as §2

[4] = molecular target: T4, SNAP-mGluR2(F756D)/mGluR7 heterodimer (Rattus norvegicus, UniProt P31421+P35400, F756D); experiment: Whole-cell patch clamp of GIRK1 current, trans-activation in SNAP-mGluR2(F756D)/mGluR7; type: cell-based
T4 construct: HA (N); expressed in transfected cells; host or cells: HEK293 / HEK293T
Source text: as §3, with “mGluR2. […] SNAP-mGluR2(F756D) was co-expressed with wild-type mGluR7 along with the GIRK1 channel.” for “mGluR2.”
as §2

[5] = molecular target: SNAP-mGluR2/SNAP-mGluR2 homodimer (mGluR2/2) (Rattus norvegicus, UniProt P31421); experiment: smFRET on isolated immune-purified SNAP-mGluR2/2 dimers; conditions: 10 nM DCG-IV
Source text: (§4) Receptors expressed in HEK293T cells were labeled with a mixture of SNAP-reactive donor and acceptor fluorophores, detergent solubilized, immune-purified and tethered by biotinylated secondary antibodies at low density to coverslips that were passivated with a lawn of polyethylene glycol[13]. We used single-molecule FRET (smFRET) in order to measure the absolute FRET levels and dynamic changes associated with ligand-induced conformational changes in the LBDs. We imaged the donor and acceptor dyes using total internal reflection fluorescence (TIRF) microscopy[13],[31]

[6] = molecular target: SNAP-mGluR7/SNAP-mGluR7 homodimer (mGluR7/7) (Rattus norvegicus, UniProt P35400); experiment: smFRET on isolated immune-purified SNAP-mGluR7/7 dimers
Chain of SNAP-mGluR7/SNAP-mGluR7 homodimer (mGluR7/7) (P35400 35-915): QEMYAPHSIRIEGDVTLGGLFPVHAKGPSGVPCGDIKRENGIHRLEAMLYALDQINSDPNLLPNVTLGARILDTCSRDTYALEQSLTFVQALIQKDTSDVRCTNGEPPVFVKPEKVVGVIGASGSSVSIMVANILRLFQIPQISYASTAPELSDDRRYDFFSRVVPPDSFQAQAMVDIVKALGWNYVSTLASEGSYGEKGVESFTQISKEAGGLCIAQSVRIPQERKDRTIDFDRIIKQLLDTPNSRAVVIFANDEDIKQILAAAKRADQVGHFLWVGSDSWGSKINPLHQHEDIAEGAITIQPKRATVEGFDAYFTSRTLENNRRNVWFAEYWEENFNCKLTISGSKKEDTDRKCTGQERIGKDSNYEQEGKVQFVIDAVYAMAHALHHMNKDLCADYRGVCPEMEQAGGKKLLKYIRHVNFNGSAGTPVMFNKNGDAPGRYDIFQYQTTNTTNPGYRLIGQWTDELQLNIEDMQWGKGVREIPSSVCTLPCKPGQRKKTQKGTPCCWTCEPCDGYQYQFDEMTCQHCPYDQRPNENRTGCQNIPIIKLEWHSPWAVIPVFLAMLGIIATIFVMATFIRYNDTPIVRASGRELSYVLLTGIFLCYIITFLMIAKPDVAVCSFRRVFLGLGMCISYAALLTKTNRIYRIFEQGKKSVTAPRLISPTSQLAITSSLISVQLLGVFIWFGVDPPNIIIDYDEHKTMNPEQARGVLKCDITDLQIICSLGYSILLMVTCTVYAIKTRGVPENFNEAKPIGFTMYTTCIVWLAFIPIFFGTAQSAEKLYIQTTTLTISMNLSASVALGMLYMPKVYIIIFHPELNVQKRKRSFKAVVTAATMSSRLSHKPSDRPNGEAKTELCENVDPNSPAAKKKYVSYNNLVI
Source text: as §4

Chain of CLIP-mGluR2/SNAP-mGluR7 heterodimer (mGluR2/7) (P31421 19-872): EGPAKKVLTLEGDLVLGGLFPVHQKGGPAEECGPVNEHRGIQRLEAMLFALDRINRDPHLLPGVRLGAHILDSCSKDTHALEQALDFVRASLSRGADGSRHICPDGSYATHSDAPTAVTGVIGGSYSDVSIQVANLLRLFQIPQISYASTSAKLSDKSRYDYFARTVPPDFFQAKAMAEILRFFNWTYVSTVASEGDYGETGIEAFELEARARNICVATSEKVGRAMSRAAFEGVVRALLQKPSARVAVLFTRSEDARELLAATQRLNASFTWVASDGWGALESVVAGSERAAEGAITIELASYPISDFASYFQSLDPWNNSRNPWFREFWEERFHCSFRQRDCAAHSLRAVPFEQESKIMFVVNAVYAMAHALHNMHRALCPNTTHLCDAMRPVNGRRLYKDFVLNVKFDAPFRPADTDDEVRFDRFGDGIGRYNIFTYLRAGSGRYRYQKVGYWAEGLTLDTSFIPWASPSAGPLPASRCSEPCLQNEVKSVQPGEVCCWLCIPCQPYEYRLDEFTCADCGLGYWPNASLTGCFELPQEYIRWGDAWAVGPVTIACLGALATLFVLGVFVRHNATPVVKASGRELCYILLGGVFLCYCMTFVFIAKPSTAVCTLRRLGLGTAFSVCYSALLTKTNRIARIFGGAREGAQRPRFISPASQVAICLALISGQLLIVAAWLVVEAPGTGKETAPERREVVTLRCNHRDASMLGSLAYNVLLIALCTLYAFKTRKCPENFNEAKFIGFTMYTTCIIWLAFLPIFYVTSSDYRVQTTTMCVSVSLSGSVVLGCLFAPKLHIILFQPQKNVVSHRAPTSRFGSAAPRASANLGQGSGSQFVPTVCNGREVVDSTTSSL
Chain of CLIP-mGluR2/SNAP-mGluR7 heterodimer (mGluR2/7) (P35400 35-915): as the sequence (P35400 35-915) above
T4 sequence (P31421 19-872 F756D): as the sequence (P31421 19-872) above, with F738D counted along it
T4 sequence (P35400 35-915): as the sequence (P35400 35-915) above
T1 sequence (P35400 35-915 K319C): as the sequence (P35400 35-915) above, with K285C counted along it
Chain of SNAP-mGluR2/SNAP-mGluR2 homodimer (mGluR2/2) (P31421 19-872): as the sequence (P31421 19-872) above
T2 sequence (P31421 19-872): as above
T2 sequence (P35400 35-915 K319C): as the sequence (P35400 35-915) above, with K285C counted along it
T3 sequence (P31421 19-872 F756D): as the sequence (P31421 19-872) above, with F738D counted along it

NC(CC(CCC(=O)Nc1ccc(N=Nc2ccc(NC(=O)CN3C(=O)C=CC3=O)cc2)cc1)C(=O)O)C(=O)O (mixture of isomers) [D-MAG-0, maleimide-azobenzene-glutamate]
stabilization of activated conformation, fold more effective than saturating free glutamate ([1]; trans D-MAG-0): approximately 5 fold
occupancy of the activated low FRET state ([1]; trans D-MAG-0 on both subunits): ~ 50%
time in the activated low-FRET state [2]: ~ 90%

CCc1nc2c(o1)CC(c1ccc(C)cc1C)CC2=O (centres unmarked) [ADX71743]
effect on smFRET distribution [3]: narrowed the smFRET distribution and shifted it to the right

Nc1nc(OCc2ccc(CNC(=O)CCc3cn(CCOCCOCCOCCOCCOCCOCCOCCOCCOCCOCCOCCOCCC(=O)NCC(=O)Nc4ccc(/N=N/c5ccc(NC(=O)CCC[C@@H](C[C@H](N)C(=O)O)C(=O)O)cc5)cc4)nn3)cc2)c2nc[nH]c2n1 [BGAG12, benzylguanine azobenzene glutamate]
photocurrent (SNAP-mGluR2(F756D)): no photocurrent

N[C@H](C(=O)O)C1[C@@H](C(=O)O)[C@@H]1C(=O)O (some centres unmarked) [DCG-IV]
Norm. (1 nM DCG-IV), Over 20% Photo ([4]; 1 nM DCG-IV, summary of cells Over 20% Photo): 0.04748
Norm. (1 nM DCG-IV), Under 15% Photo ([4]; 1 nM DCG-IV, summary of cells Under 15% Photo): 0.01667
Norm. (10 nM DCG-IV), Over 20% Photo ([4]; 10 nM DCG-IV, summary of cells Over 20% Photo): 0.2749
Norm. (10 nM DCG-IV), Under 15% Photo ([4]; 10 nM DCG-IV, summary of cells Under 15% Photo): 0.22
Norm. (100 nM DCG-IV), Over 20% Photo ([4]; 100 nM DCG-IV, summary of cells Over 20% Photo): 0.5816
Norm. (100 nM DCG-IV), Under 15% Photo ([4]; 100 nM DCG-IV, summary of cells Under 15% Photo): 0.3011
Norm. (1 uM DCG-IV) ([4]; 1 uM DCG-IV normalised to 1 mM Glu, single cells): 0.9403 and 0.9452 and 0.7554 and 0.9507
Norm. (1 uM DCG-IV), Over 20% Photo ([4]; 1 uM DCG-IV, summary of cells Over 20% Photo): 0.9454
Norm. (1 uM DCG-IV), Under 15% Photo ([4]; 1 uM DCG-IV, summary of cells Under 15% Photo): 0.7554
Norm. (10 uM DCG-IV) ([4]; 10 uM DCG-IV normalised to 1 mM Glu, single cells): 1
Current, 10 uM DCG-IV ([4]; 10 uM DCG-IV, single cells): -498.53
Norm. (10 uM DCG-IV), Over 20% Photo ([4]; 10 uM DCG-IV, summary of cells Over 20% Photo): 1
DCG-IV GIRK concentration-response relation compared to mGluR2/2 ([4]; patch clamp, foot of the relation): left-shifted; also recorded: more sensitive
occupancy of the activated conformation [5]: ~ 5%
activated conformation occupancy, fold greater than mGluR2/2 ([3]; 10 nM DCG-IV): ~ 5 fold
occupancy of the activated conformation ([3]; 10 nM DCG-IV): ~ 25%

N[C@@H](CCP(=O)(O)C(O)c1ccc(OCC(=O)O)cc1)C(=O)O (some centres unmarked) [LSP4-2022]
smFRET traces ([6]; 20 μM LSP4-2022): frequent transitions to the low FRET activated conformation
normalized low FRET area (Supplemental Figure 2a), mGluR7 LSP4 ([6]; agonist 0.003 (M)): 1
normalized low FRET area (Supplemental Figure 2a), mGluR7 LSP4 ([6]; agonist 1.00E-03 (M)): 0.8692
normalized low FRET area (Supplemental Figure 2a), mGluR7 LSP4 ([6]; agonist 1.00E-06 (M)): 0.03798
normalized low FRET area (Supplemental Figure 2a), mGluR7 LSP4 ([6]; agonist 1.00E-07 (M)): 0.02088
normalized low FRET area (Supplemental Figure 2a), mGluR7 LSP4 ([6]; agonist 2.00E-05 (M)): 0.3163
receptor occupancy at 1000 µM ([6]; read-out: occupancy of the activated conformation): > 50%
receptor occupancy at 3000 µM ([6]; read-out: occupancy of the low FRET conformation): ~65%
efficacy, fold greater than that of glutamate ([6]; smFRET): at least 6 fold
shift of smFRET distribution ([3]; 1 µM LSP4-2022): slightly more than half-way toward the activated low FRET state
activation ([3]; 1 mM LSP4-2022): almost complete
apparent affinity of mGluR7 subunit, fold higher than when partnered with another mGluR7 ([3]; smFRET): approximately 1000 fold

Clc1cccc(Cl)c1/C(=C/n1cncn1)OC1CCCCCC1 [Ro 64-5229]
effect on smFRET distribution [3]: narrowed the smFRET distribution and shifted it to the right

MNI-137
effect on smFRET distribution [3]: narrowed the smFRET distribution and shifted it to the right
